Laboratory results: patent publication US10273451B2, “Immortalization of cells including neuronal cells” (The Johns Hopkins University, priority 2005, dated 2019)

Experiments:
50B11 cells [1] = conditions: 24 hours
Experimental: Conditions for culturing the 50B11 cells and measuring the ATP levels were optimized for the 96-well plate format. Initially 500 cells/well were plated in 96-well plates for 24 hours and then differentiated with forskolin (50 μM) in culture medium with reduced serum (0.2%). […] Cellular ATP levels were measured using the ViaLight Plus kit (Cambrex, city, state) according to manufacturer's instructions. This luciferase-based assay allows measurement of ATP levels on a luminometer with minimal manipulation of the well contents.
Next, we tested whether we can evaluate the neurotoxicity of capsaicin in an assay suitable for 96-well plate format. Capsaicin causes axonal degeneration and death of nociceptive DRG sensory neurons [ref here]. In order to evaluate cell survival we used a luciferase-based assay to measure cellular ATP levels.

TRPV-1 = target: T1, TRPV-1 (Rattus norvegicus, UniProt O35433); assay: Ca2+ microfluorimetry (fura-2 ratiometric imaging) of the capsaicin response; assay type: cell-based
T1 construct: endogenous in cells; host or cells: 50B11 immortalized rat DRG neuronal cell line, with and without forskolin differentiation
T1 sequence (O35433 whole entry): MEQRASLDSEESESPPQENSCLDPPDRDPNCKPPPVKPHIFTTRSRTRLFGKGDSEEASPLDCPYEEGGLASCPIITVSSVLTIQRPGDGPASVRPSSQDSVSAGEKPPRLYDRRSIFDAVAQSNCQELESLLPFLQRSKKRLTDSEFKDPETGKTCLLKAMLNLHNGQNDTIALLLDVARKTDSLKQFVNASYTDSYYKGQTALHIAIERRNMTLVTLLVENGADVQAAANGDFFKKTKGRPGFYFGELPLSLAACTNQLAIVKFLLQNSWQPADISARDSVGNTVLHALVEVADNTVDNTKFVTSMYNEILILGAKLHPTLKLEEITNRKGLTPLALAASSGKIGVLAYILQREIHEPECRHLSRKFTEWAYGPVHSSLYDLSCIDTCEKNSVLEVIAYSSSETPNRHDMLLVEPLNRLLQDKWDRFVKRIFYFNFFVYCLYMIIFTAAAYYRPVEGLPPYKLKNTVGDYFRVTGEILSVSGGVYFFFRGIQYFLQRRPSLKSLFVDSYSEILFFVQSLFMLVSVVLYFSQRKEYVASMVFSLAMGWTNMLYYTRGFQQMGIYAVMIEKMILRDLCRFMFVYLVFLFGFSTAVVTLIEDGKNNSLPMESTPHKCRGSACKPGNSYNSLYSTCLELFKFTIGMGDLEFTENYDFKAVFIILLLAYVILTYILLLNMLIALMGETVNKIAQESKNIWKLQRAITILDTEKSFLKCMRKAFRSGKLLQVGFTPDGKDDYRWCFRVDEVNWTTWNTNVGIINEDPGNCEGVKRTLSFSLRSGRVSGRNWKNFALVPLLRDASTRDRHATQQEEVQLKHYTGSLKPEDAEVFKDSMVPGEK
Experimental: Ca^2+ microfluorimetry and imaging in forskolin-differentiated 50HB cells were performed by ratiometric imaging of the Ca2+-sensitive fluorescent dye fura-2. Cells were grown on glass coverslips in 12-well dishes and calcium imaging was done with and without differentiation with 50-μM forskolin. Cell were loaded for 15 min at 37° C. with 2 M fura-2 acetoxymethyl ester (Molecular Probes, Carlsbad, Calif.) in Krebs-HEPES buffer (100 mM NaCl, 2.0 mM KCl, 1.0 mM CaCl2, 1.0 mM MgCl2, 1.0 mM NaH2PO4, 4.2 mM NaHCO3, 12.5 mM HEPES and 10.0 mM glucose), then washed for 3 times in buffer to remove remaining fura-2 ester. The coverslip with loaded cells was then mounted on an inverted epifluorescence microscope (Zeiss, Axiovert 200) and covered with 60 μl Krebs-HEPES buffer or buffer with capsaicin. In capsazepin pretreatment experiments, capsazepin was added Images were acquired every ˜3 seconds with an extended Hamamatsu Digital Camera C4742-95 (Hamamatsu Photonics, Barcelona, Spain) using a dual filter wheel (Sutter Instruments, Novato, Calif., USA) equipped with 340 and 380 nm, 10-nm-bandpass filters (Omega Optics, Madrid, Spain). Data was acquired using InCyt Im2 software (Intracellular Imaging, Inc.). Fluorescence changes are expressed as the ratio of fluorescence at 340 and 380 nm (F340/F380).

50B11 cells [2] = assay: Forskolin-induced differentiation and neurite extension of the immortalized DRG neuronal line; assay type: cell-based, rat; conditions: for neurite extension in presence of neurotrophic factor: 50B11 cells
Experimental: One of the immortalized DRG neuronal cell lines (50B11) maintained self-replication capability over many cell divisions (>300) and was used in further analysis of neuronal properties. Differentiation and axonal elongation was induced in these cells by addition of forskolin (50 μM) into the culture medium. Within hours, more than 90% cells stopped dividing and extended long neurites. These cells were grown in 24-well plates on glass coverslips, fixed with 4% paraformaldehyde and immunostained for presence of neurofilament (SMI-32 antibody from Stemberger Monoclonals Inc., Lutherville, Md.), ßIII-tubulin (Promega, Madison Wis.), transient receptor potential channel, vanilloid subfamily member-1 (TRPV-1) (Abeam, Cambridge, Mass.), calcitonin gene related protein (CGRP) (source, city, state) or isolectin B-4 (IB4) (Vector Laboratories, Burlingame, Calif.) using standard methods (Keswani et al., supra). Slides were counterstained with 4′,6-Diamidino-2-phenylindole (DAPI) and mounted with Vectashield (Vector Laboratories, Burlingame, Calif.). Specificity of all primary and secondary antibodies was confirmed using appropriate positive and negative control cultures.

50B11 cells [3] = assay: Axonal degeneration, total neurite length measurement; assay type: cell-based, rat; conditions: differentiated 50B11 cells treated 24 hours
50B11 cells [4] = assay: Real-time PCR of gene expression changes; assay type: cell-based, rat
Experimental: For analysis of changes in gene expression, 501311 cells were grown in media containing forskolin (50 μM), NGF (10 ng/ml), GDNF (10 ng/ml) or vehicle control for 24 hours. Total RNA was isolated using the TRIzol Reagent according to the manufacturer's recommendation. Two μg total RNA was reverse-transcribed using Ready-To-Go You-Prime First-Strand Bead (Amersham Biosciences, Piscataway, N.J.) according to manufacturer's protocols. Real-time PCR was carried out in a DNA Engine Opticon Continuous Fluorescence Detection System using DyNAmo SYBR Green Polymerase (MJ Research, Waltham, Mass.). All primers were designed according to the individual gene sequence in the GenBank/EMBL nucleotide sequence database (primer sequences are available upon request). The binding positions of all primers were chosen to produce amplicons of 150 to 200 base pairs and to achieve maximum efficiency and specificity. All primer sequences were checked for specificity by a BLAST search in the GenBank/EMBL nucleotide sequence database. The primers were synthesized by Integrated DNA Technologies, Inc. (Coralville, Iowa). […] The expression levels of individual genes before and after treatment were calculated using the comparative CT method.

COc1cc(CNC(=O)CCCC/C=C/C(C)C)ccc1O [capsaicin]
reduction in ATP levels (50B11 cells [1]; 10 μM capsaicin, differentiated 50B11 cells): about 50% | intracellular calcium levels (TRPV-1; 50B11 cells, fura-2 F340/F380): rapid rise in intracellular calcium levels

C=C[C@@]1(C)CC(=O)[C@]2(O)[C@@]3(C)[C@@H](O)CCC(C)(C)[C@@H]3[C@H](O)[C@H](OC(C)=O)[C@@]2(C)O1 [forskolin]
cells that stopped dividing and extended long neurites (50B11 cells [2]; forskolin 50 μM in culture medium, within hours): more than 90%

Nc1ccn([C@H]2CC[C@@H](CO)O2)c(=O)n1 [ddC]
toxicity by total neuritic lengths (50B11 cells [3]): validated this toxicity

Oc1cc2c(cc1O)CN(C(=S)NCCc1ccc(Cl)cc1)CCC2 [capsazepin]
prevention of capsaicin-induced neurotoxicity (ATP levels) (50B11 cells [1]; co-administration with capsaicin): preventable | prevention of capsaicin-induced rise in intracellular calcium (TRPV-1; pretreatment of 50B11 cells before capsaicin): preventable

CCC(C)(C)C(=O)C(=O)N1CCC[C@H]1C(=O)OCCCc1cccnc1 [GPI-1046]
prevention of ddC neurotoxicity (ATP levels) (50B11 cells [1]; co-administration with ddC): preventable

NGF: neurotrophic factor, nerve growth factor
Trk-A upregulation (50B11 cells [4]; forskolin plus NGF 10 ng/ml versus forskolin plus GDNF): more upregulated | neurite extension in presence of neurotrophic factor (50B11 cells [2]): extended longer neurites

B1: GDNF: neurotrophic factor acting on c-ret and GFRα-1 (protein, UniProt P39905 78-211, looked up)
Glial cell line-derived …: SPDKQMAVLPRRERNRQAAAANPENSRGKGRRGQRGKNRGCVLTAIHLNVTDLGLGYETKEELIFRYCSGSCDAAETTYDKILKNLSRNRRLVSDKVGQACCRPIAFDDDLSFLDDNLVYHILRKHSAKRCGCI
GFRα-1 upregulation (50B11 cells [4]; forskolin plus GDNF 10 ng/ml versus forskolin plus NGF): more upregulated | neurite extension in presence of neurotrophic factor (50B11 cells [2]): extended longer neurites
